Data reported in US8901142B2, “Fused tricyclic compounds as mTOR inhibitors” (Merck Sharp & Dohme Corp., priority 2011, dated 2014).

Legend:
[1] = test system: mTORC2 (pAKT S473) in PC3 cells; assay: mTOR target engagement assay, immunofluorescent cell-based, mTORC2 activity by reduction of pAKT S473; settings: Homo sapiens, PC-3, ninety minutes at 37° C., immunofluorescence
Experimental: (§1) The target engagement of mTOR kinase inhibitors was evaluated using an immunofluorescent cell-based assay. In this assay, inhibition of mTORC1 activity was measured by the reduction in the level of phosphorylated 4E-BP1Thr37/46 (p4E-BP1 Thr37/46), and inhibition of mTORC2 activity was measured by the reduction of phosphorylated AKTSer473 (pAKT S473).
(§2) PC3 cells (prostate tumor cell-line that contains a mutation in the tumor suppressor PTEN, that promotes the phosphorylation and activation of AKT and 4E-BP 1) were used in the immunofluorescence assay. PC3 cells were seeded on 384 well plates (black clear bottom, Matrix #4332) overnight. PC3 cells were then treated with 40 μl of the serially diluted test compounds (in 5% fetal bovine serum, F12 medium containing 0.25% DMSO) for ninety minutes at 37° C. The test compound solution was removed, and the plates were washed gently two times with 25 μl phosphate buffered saline (PBS). The cells were fixed by adding 25 μl of Prefer reagent (from Anatech LTD, Cat#414, a glyoxal fixative for fixing proteins within a cell) for sixty minutes followed by three washes with PBS. 5% Goat serum in PBS/0.3% Triton was used to block non-specific binding (60 minutes).
(§3) The primary antibodies targeting pAKT S473 and p4E-BP1 Thr37/46 were diluted into PBS/0.3% Triton and incubated with the cells overnight at 4° C. The antibodies targeting pAKTS473 (Cat#4085, Cell signaling) and p4E-BP1 Thr37/46 (Cat#2855, Cell signaling) were used at a 1:100 dilution. Plates were washed three times with PBS/0.1% Tween 20 before adding the secondary antibody at a 1:200 dilution. (goat anti-rabbit containing a fluorescent label, Alexa Fluor 488, Cat# A11008, Invitrogen) in PBS/0.3% Triton for 60 minutes.
(§4) Finally, the plates were washed three times with PBS/0.1% Tween 20 and the fluorescent intensity was read using an Analyst HT from Molecular Devices. The fluorescent intensity values from the serially diluted compound treatment group were analyzed using the Xlfit 4 program ([…]) (Formula 205: Y=Bottom+(Top-Bottom)/(1+(IC50/X)^Hillslope) to generate the IC50 value. Where Top is the maximum signal without Compound (+DMSO only) and Bottom represents maximum inhibition. Y is the fluorescence at some compound concentration. The control used to determine the fluorescent intensities for 100% pAKT S473 or 100% phosphorylated p4E-BP1 Thr37/46 were measured from untreated wells that contained only DMSO, instead of test compound.

[2] = test system: mTORC1 (p4E-BP1 Thr37/46) in PC3 cells; assay: mTOR target engagement assay, immunofluorescent cell-based, mTORC1 activity by reduction of p4E-BP1 Thr37/46; settings: Homo sapiens, PC-3, ninety minutes at 37° C., immunofluorescence
Experimental: as §1, §2, §3, §4

Cc1n[nH]c2c1c([C@@H]1C[C@H]3CC[C@@H](C1)N3C(=O)c1nnc[nH]1)nc1c(-c3ccc(-c4ccccc4)nc3)cnn12 [Example 1, ((1R,3s,5S)-3-(3-methyl-6-(6-phenylpyridin-3-yl)-1H-dipyrazolo[1,5-a:4′,3′-e]pyrimidin-4-yl)-8-azabicyclo[3.2.1]octan-8-yl)(4H-1,2,4-triazol-3-yl)methanone]
IC50 [1]: 1 to 100 nM | IC50 [2]: 100 to 1000 nM

O=C(c1nnc[nH]1)N1[C@@H]2CC[C@H]1C[C@H](c1nc3c(-c4ccc(-c5ccccc5)nc4)cnn3c3[nH]ccc13)C2 [Example 2, ((1R,3s,5S)-3-(3-(6-phenylpyridin-3-yl)-8H-pyrazolo[1,5-a]pyrrolo[3,2-e]pyrimidin-5-yl)-8-azabicyclo[3.2.1]octan-8-yl)(4H-1,2,4-triazol-3-yl)methanone]
IC50 [1]: 1 to 100 nM | IC50 [2]: 1 to 100 nM

CC(C)(O)c1ccc(-c2cnn3c2nc([C@@H]2C[C@H]4CC[C@@H](C2)N4C(=O)c2nnc[nH]2)c2cc[nH]c23)cn1 [Example 3, ((1R,3s,5S)-3-(3-(6-(2-hydroxypropan-2-yl)pyridin-3-yl)-8H-pyrazolo[1,5-a]pyrrolo[3,2-e]pyrimidin-5-yl)-8-azabicyclo[3.2.1]octan-8-yl)(1H-1,2,4-triazol-3-yl)methanone]
IC50 [1]: 100 to 1000 nM | IC50 [2]: 100 to 1000 nM

CC(C)(O)c1ccc(-c2cnn3c2nc([C@@H]2C[C@H]4CC[C@@H](C2)N4C(=O)CO)c2cc[nH]c23)cn1 [Example 4, 2-hydroxy-1-((1R,3s,5S)-3-(3-(6-(2-hydroxypropan-2-yl)pyridin-3-yl)-8H-pyrazolo[1,5-a]pyrrolo[3,2-e]pyrimidin-5-yl)-8-azabicyclo[3.2.1]octan-8-yl)ethanone]
IC50 [1]: 1000 to 2000 nM | IC50 [2]: 100 to 1000 nM

O=C(CO)N1[C@@H]2CC[C@H]1C[C@H](c1nc3c(-c4ccc(-c5ncc[nH]5)nc4)cnn3c3[nH]ccc13)C2 [Example 5, 1-((1R,3s,5S)-3-(3-(6-(1H-imidazol-2-yl)pyridin-3-yl)-8H-pyrazolo[1,5-a]pyrrolo[3,2-e]pyrimidin-5-yl)-8-azabicyclo[3.2.1]octan-8-yl)-2-hydroxyethanone]
IC50 [1]: 1 to 100 nM | IC50 [2]: 100 to 1000 nM

O=C(c1nnc[nH]1)N1[C@@H]2CC[C@H]1C[C@H](c1nc3c(-c4ccc(-c5ncc[nH]5)nc4)cnn3c3[nH]ccc13)C2 [Example 6, ((1R,3s,5S)-3-(3-(6-(1H-imidazol-2-yl)pyridin-3-yl)-8H-pyrazolo[1,5-a]pyrrolo[3,2-e]pyrimidin-5-yl)-8-azabicyclo[3.2.1]octan-8-yl)(4H-1,2,4-triazol-3-yl)methanone]
IC50 [1]: 1 to 100 nM | IC50 [2]: 1 to 100 nM
